Results published in PubChem BioAssay (NCI).
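96-well plates; 48 h exposure; 5 concentrations. Endpoints by linear interpolation between flanking doses. Not reached: highest tested concentration assigned. Abbreviation: GI50, concentration required for 50% inhibition of growth. TGI denotes the concentration required for complete inhibition of growth.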

Assays:
Assay in all cases: NCI anticancer screen, dose series, 48 h
[1] = test system: ACHN renal
[2] = test system: MDA-MB-435
[3] = test system: UACC-257 melanoma
[4] = test system: RXF 393 renal
[5] = test system: SF-268 CNS
[6] = test system: LOX IMVI melanoma
[7] = test system: OVCAR-5 ovarian
[8] = test system: RPMI-8226 leukemia
[9] = test system: NCI-H522 lung
[10] = test system: U251 CNS
[11] = test system: MOLT-4 leukemia
[12] = test system: SF-539 CNS
[13] = test system: SK-OV-3 ovarian

SMILES	TGI [1] [µM]	TGI [2] [µM]	TGI [3] [µM]	TGI [4] [µM]	TGI [5] [µM]	TGI [6] [µM]	TGI [7] [µM]	TGI [8] [µM]	TGI [9] [µM]	TGI [10] [µM]	TGI [11] [µM]	TGI [12] [µM]	TGI [13] [µM]	GI50 [2] [µM]	GI50 [4] [µM]	GI50 [10] [µM]
N#Cc1c(N2CCOCC2)[nH]c(=O)c(C(c2c(Cl)cccc2Cl)c2c(O)c(C#N)c(N3CCOCC3)[nH]c2=O)c1O	29.6	30.2	34	35.5	51.1	25.6	31.9	60.8	28.2	30.4	36.2	34.9				
O=C1Oc2cc3c(c4cccc1c24)O[C@H](c1ccccc1)[C@@H](c1ccccc1)[C@@H]3c1ccc(Cl)cc1	> 100	> 100	> 100	40.1	> 100	> 100	> 100	> 100	> 100	50.1	64.3	> 100	> 100			
CCOC(=O)c1c(N2CCCC2)[nH]c(=O)c(C(c2cccs2)c2c(O)c(C(=O)OCC)c(N3CCCC3)[nH]c2=O)c1O	> 100	> 100	> 100	> 100	> 100	> 100	> 100	> 100	> 100	> 100	> 100	> 100	> 100			
O=c1oc2ccc([N+](=O)[O-])cc2c(Nc2ccc3c(c2)S(=O)(=O)c2ccccc2O3)c1[N+](=O)[O-]	> 100	> 100	> 100	> 100	> 100	> 100	> 100	> 100	> 100	> 100	> 100	> 100	> 100			
COc1ccc(CCNCCCC2c3ccccc3-c3ccccc32)cc1OC	29.6	28.3	28.1	26.1	30.3	28.7	33.4	22	30.1	26.2	41.8	30.8	32.9			
S=C1N=C(Cl)/C(=C\c2ccccc2)N1	> 100	> 100	> 100	> 100	> 100	> 100	> 100	> 100	> 100	> 100	> 100	> 100	> 100			
CN(C)CC1CN=C(NC(=O)Nc2ccccc2)O1 (stereo not drawn)	> 100	> 100	> 100	> 100	> 100	> 100	> 100	> 100	> 100	> 100	> 100	> 100	> 100			
O=C1c2ccccc2C(=O)c2oc(Br)cc21	3.22	0.311	0.784	2.87	4.22	> 100	3.16	6.99	3.04	2.64	4.27	1.84	6.61			
NC(=O)c1cccc([C@@H]2O[C@H](CO)[C@@H](O)[C@H]2O)c1	71.3	> 90.3	> 100	34.6	26.6	> 85.4	> 100	29.8	10.2	32.4	8.45	6.28	35.7			
Cn1c2ccccc2c(=O)c2[nH]c3ccccc3c21	> 100	> 100	> 100	> 100	62.4	> 100	> 100	> 100	> 100	> 100	75.9	> 100	> 100			
COc1ccc(N=[N+]([O-])c2ccc(OC)cc2)cc1	> 100	> 100	> 100	> 100	> 100		> 100	> 100	> 100	> 100	> 100		> 100			
N#CC(C#N)=Cn1c(=S)[nH]c2ccccc21	> 100	> 100	> 100	> 100	> 100	> 100	> 100	> 100	> 100	> 100	> 100	> 100	> 100			
COc1cccc(-c2nc(-c3cnccn3)n(COCCO)n2)c1		> 100	> 100	> 100	> 100	> 100	> 100	> 100	> 100	> 100	> 100	> 100	> 100			
Cc1ccc2c(=O)cc(-c3sc4ccccc4c3C)[nH]c2n1		17.8	> 100	53.1	69.7	46.7	> 100	38.1	42.3	> 100	69.7		71.4	4.84	16.8	38.7
N#Cc1sc2c(c1O)c(=O)n(-c1ccccc1)c(=S)n2-c1ccccc1	> 100	> 100	> 100	> 100	> 100	> 100	> 100	> 100	> 100	> 100						
CC1=C(C(=O)OC(C)C)C(c2ccccc2C(F)(F)F)C(C(=O)OC(CO[N+](=O)[O-])CO[N+](=O)[O-])=C(C)N1 (stereo not drawn)	22.1	27.4		24.7	38.7	21.1	46.8	> 100	14.2	29	9.79	23.2	38.9			
CC1(C)[C@H]2Cc3cc(-c4cc5c(cn4)[C@@H]4C[C@H]([C@@H]5[C@@H]5c6cc(-c7cc8c(cn7)[C@@H]7C[C@H](C8)C7(C)C)ncc6[C@@H]6C[C@H]5C6(C)C)C4(C)C)ncc3[C@@H]1C2	> 100	> 100	> 100	> 100	> 100	> 100	> 100	> 100	> 100	> 100	> 100		> 100			
CC(=O)c1cc(C)n2c1CS[C@@H]2c1ccccc1	> 100	> 100	> 100	91.6	> 100	> 100	> 100	44	> 100	92.7	96.5		> 100			

SMILES	TGI [1] [µM]	TGI [2] [µM]	TGI [3] [µM]	TGI [4] [µM]	TGI [5] [µM]	TGI [6] [µM]	TGI [7] [µM]	TGI [8] [µM]	TGI [9] [µM]	TGI [10] [µM]	TGI [11] [µM]	TGI [12] [µM]	TGI [13] [µM]	GI50 [2] [µM]	GI50 [4] [µM]	GI50 [10] [µM]
COc1cc2c(cc1OC)C(=O)N(NC1=NCCN1)C2=O	> 100	> 100	> 100	> 100	> 100	> 100	> 100	> 100	> 100	> 100	> 100	> 100	> 100			
CN(C)Cc1cc(C(C)(C)C)cc(C2CCCCC2)c1O	28.9	36.6	21.8	26.4	32.5	28.5	34.9		37.2	27.4	22.6	22.8	28.7			
C/C=C/[C@H](O[Si](C)(C)C(C)(C)C)[C@@H](O)/C=C/C(=O)OCC	30.2	38.5	40.8	43.1	53.7	33.3	79.5	12.1	30.3	35.5	37.6	52				
COP(=O)(OC)/C(=C\c1cn(C(c2ccccc2)(c2ccccc2)c2ccccc2)cn1)NC(C)=O	> 100	> 100	> 100	83.6	> 100	> 100	> 100		> 100	> 100	> 100	> 100	> 100			
C[C@]12CC[C@H](O)CC1=CC[C@@H]1C2CC[C@]2(C)Nc3c(cnn3-c3ccc(F)cc3)CC12 (stereo partly drawn)	> 100	> 100	> 100	7.7	> 100	> 100	> 100		> 100	> 100	> 100	4.44	57.3			
COCCOC(=O)C(C)=[N+]=[N-]	> 100	> 100	> 100	> 100	> 100	> 100	> 100	> 100	> 100	> 100						
O=C(NNC(=O)c1ccccc1O)c1ccc(O)cc1		> 100	> 100	> 100	> 100	> 100	> 100	> 100	56.7	> 100	> 100	> 100	> 100			
FC1=C2CCCCCC2SC1(F)F (stereo not drawn)	79.3	70.7	> 100	33.2	> 100	31.4	> 100	84.9	29.2		44.1		> 100			
CN(C)Cc1cc(N=Nc2ccc(Cl)cc2)ccc1OC(=O)c1ccccc1	28.7	29.3	35.2	30.1	59.9	27.6	30.6	40.7	26.5	29.4	26.1	34.5				
COc1cc(C2C(Cl)C(=O)N2NC(=O)c2ccc(NC(C)=O)cc2OC)ccc1O (stereo not drawn)	50.2	> 100		47.4	61.5	26.4	28.4	13.4	23		22.1	48.1	> 100			
COC(=O)c1c(-c2ccccc2)c2sc3ccccc3n2c1N	> 100	> 100	> 100	55.1	> 100	43.2	> 100	> 100	73.2	> 100		> 100	> 100			
CC1=NN(C(=O)CC(=O)Nc2cccc(Cl)c2)C(=O)C1N=Nc1ccc(C(=O)O)cc1 (stereo not drawn)	> 100	> 100	> 100	> 100	> 100	> 100	> 100	> 100	> 100	> 100	> 100	> 100				
COc1ccc(CCNC(=O)[C@H]2CCCC[C@@H]2CCO)cc1OC	> 100	> 100	> 100	> 100	> 100		> 100	> 100	> 100	> 100	> 100	> 100	> 100			
CC(=O)c1sc(=N)n(-c2c(C)cccc2C)c1C	> 100	> 100		> 100	> 100	> 100	> 100	> 100	> 100	> 100	> 100	> 100	> 100			
O=C(CSC1=NNC2(C(=O)N1)c1ccccc1-c1ccccc12)NC(=S)Nc1ccccc1	> 10	> 10	> 10	> 10	> 10	> 10	> 10	> 10	> 10		> 10	> 10	> 10			
COc1ccc(NC2CC(C)N(C(=O)c3ccccc3)O2)cc1 (stereo not drawn)	> 10	> 10	> 10	> 10	> 10	> 10	> 10	> 10	> 10		> 10	> 10	> 10			
CC1=NN=C(N)NC1=CC(Sc1ccc(Cl)cc1)c1c(O)ccc2ccccc12 (stereo not drawn)	28.1	> 86.6	> 87.1	20.3	> 71.1	> 65.2	> 61.9	> 100	41.8	76.8	> 84.9		67.4			
COc1ccccc1CNC(=O)[C@H](Cc1ccc(O)cn1)NC(C)=O	> 100	> 100	> 100	> 100	> 100	> 100	> 100	> 100	> 100	> 100		> 100	> 100			
